# From US20230293535A1, “ERBB/BTK INHIBITORS” (Dizal (Jiangsu) Pharmaceutical Co., Ltd., priority 2018, published 2023)
# Marks after values point to notes of the source that are not given here.
# Columns and labels:
# [1] = tested on: NSCLC with EGFR Exon20ins; experiment: Anti-tumor activity in platinum-pretreated NSCLC patients with EGFR Exon20 insertion mutations; type: in vivo, human
# Text: Compound 52 is a rationally designed, oral, EGFR Exon20 insertion (Exon20ins) inhibitor, with wild-type EGFR selectivity. […] Compound 52 is currently in late stage development with multiple pivotal studies ongoing globally as ≥ 2nd line treatment after platinum-containing chemotherapies and 1st line for treatment naive patients. Results from multicenter, multi-arm, global studies are presented herein.
# A total of 119 evaluable platinum-pretreated NSCLC patients with EGFR Exon20ins were included in efficacy set.
# [2] = molecular target: T1, Phospho-BTK (Tyr223) (Homo sapiens, UniProt Q06187); experiment: p-BTK assay in Ramos cells (HTRF Phospho-BTK Tyr223); type: cell-based; details: pervanadate stimulated, read-out: p-BTK (Romas) IC50
# T1 construct: endogenous in cells; host or cells: Ramos
# T1 sequence (Q06187 whole entry): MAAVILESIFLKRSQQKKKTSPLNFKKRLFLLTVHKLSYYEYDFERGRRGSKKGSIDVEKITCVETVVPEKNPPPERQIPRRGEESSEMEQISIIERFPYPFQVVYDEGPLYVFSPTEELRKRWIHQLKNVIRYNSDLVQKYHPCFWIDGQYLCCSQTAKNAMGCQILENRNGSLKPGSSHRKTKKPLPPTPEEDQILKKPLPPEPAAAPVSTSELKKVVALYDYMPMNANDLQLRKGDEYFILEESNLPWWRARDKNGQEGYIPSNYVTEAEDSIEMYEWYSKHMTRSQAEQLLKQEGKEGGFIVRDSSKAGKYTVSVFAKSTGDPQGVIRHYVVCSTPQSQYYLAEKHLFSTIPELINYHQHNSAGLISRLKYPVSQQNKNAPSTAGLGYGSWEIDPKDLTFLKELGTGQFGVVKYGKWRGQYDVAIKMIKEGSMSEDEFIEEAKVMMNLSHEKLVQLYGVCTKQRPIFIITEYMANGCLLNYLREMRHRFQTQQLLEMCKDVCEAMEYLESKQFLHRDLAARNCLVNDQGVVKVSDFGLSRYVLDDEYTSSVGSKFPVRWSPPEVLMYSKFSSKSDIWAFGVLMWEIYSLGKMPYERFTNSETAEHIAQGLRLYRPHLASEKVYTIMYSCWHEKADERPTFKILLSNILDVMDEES
# Protocol: The assay plates were then incubated for 30 minutes at 37° C., 5% CO2. 300 uM Per vanadate (3X) was added to each well and the assay plates were again incubated for 60 minutes at 37° C., 5% CO2. Phospho-BTK (Tyr223) is detected using the HTRF® reagents (Cisbio) according to the manufacturer’s one-plate assay protocol.
# [3] = molecular target: T2, human Her2 exon 20 insertion mutation YVMA (Homo sapiens, UniProt P04626, INS775YVMA); experiment: Her2 Exon 20 YVMA insertion cellular phosphorylation inhibition (MSD p-Her2 Y1248/total Her2); type: cell-based; details: Her2 YVMAins cells, 4 h compound;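 also: lentivirally transduced NIH-3T3 cells in 1% FBS medium, electrochemiluminescent MSD read-out, graded compound concentrations at 37 °C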
# T2 construct: expressed in transfected cells; host or cells: NIH-3T3, lentiviral transduction, puromycin selection
# T2 sequence (P04626 with tags, fused parts or gaps INS775YVMA): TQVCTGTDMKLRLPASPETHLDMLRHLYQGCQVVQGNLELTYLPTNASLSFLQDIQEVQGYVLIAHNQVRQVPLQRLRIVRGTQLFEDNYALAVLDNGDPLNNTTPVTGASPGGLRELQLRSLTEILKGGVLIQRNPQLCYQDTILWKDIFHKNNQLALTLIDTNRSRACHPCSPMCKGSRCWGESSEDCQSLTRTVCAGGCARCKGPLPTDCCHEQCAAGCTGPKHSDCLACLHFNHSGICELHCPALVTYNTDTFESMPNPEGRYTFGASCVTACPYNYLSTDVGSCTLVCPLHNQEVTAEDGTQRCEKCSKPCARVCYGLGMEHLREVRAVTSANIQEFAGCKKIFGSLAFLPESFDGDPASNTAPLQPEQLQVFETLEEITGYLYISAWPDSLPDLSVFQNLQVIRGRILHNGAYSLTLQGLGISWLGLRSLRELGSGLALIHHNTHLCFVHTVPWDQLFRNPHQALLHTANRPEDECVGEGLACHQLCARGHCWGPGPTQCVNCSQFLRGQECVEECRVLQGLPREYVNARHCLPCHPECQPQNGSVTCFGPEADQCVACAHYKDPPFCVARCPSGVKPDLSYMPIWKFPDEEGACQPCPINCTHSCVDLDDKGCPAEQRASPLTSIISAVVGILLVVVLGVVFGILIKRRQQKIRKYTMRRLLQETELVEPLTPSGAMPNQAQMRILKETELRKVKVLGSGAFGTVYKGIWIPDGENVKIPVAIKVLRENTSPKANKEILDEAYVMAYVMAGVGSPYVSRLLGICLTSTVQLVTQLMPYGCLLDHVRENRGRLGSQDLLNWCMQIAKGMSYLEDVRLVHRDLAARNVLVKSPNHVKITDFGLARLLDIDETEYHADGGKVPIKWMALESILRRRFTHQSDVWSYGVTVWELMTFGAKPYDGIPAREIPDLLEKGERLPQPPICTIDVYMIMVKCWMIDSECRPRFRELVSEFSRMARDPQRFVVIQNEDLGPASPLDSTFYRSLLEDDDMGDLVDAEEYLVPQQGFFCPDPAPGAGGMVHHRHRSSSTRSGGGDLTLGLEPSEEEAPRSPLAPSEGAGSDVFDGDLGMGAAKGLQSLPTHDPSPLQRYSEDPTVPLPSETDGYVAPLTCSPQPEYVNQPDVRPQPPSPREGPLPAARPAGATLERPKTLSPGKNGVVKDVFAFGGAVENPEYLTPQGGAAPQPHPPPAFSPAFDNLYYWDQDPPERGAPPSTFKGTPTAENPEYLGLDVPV
# Protocol: The resulting cell line expressed phosphorylated Her2 protein and its proliferation depended on the mutation gene, which could be used for in vitro PD and anti-proliferation assays.
# One day before the test, WT or mutant cells were seeded in 96 well plates at appropriate concentrations with corresponding growth media supplemented with 1% FBS, and incubated overnight. The next day, tested compounds at a series of concentrations were added into each individual well of the plates, and the plates were incubated for 4 h at 37° C. with 5% CO2.
# The EGFR (Y1068) phosphorylation level (activity) of cells in each well were then measured with MSD kit named “MULTI-SPOT®96 4-Spot HB Prototype EGFR Triplex [sequence]: pEGFR(Tyr1068),pEGFR(Tyr1173), Total EGFR” according to the manufacturer’s instruction (MESO SCALE DISCOVERY, Cat# N45ZB-1). The assay is an electrochemiluminescent method for determining both phosphorylated and total EGFR of cells with an MSD SECTOR® Imager and the ratio of p-EGFR/total EGFR can be generated by the machine. The Her2 (Y1248) phosphorylation level (activity) of cells in each well were measured with MSD Kit named “Phospho-ErbB2 (Tyr1248) Assay Whole Cell Lysate Kit” according to the manufacturer’s instruction (MESO SCALE DISCOVERY, Cat# K151CLD-3). The assay is an electrochemiluminescent method (MESO SCALE DISCOVERY) for determining both phosphorylated and total Her2 of cells with an MSD SECTOR® Imager and then the ratio of p-Her2/total Her2 can be generated by the machine.
# [4] = tested on: WT EGFR cell line A-431; experiment: Cell proliferation, WT EGFR A431 (CellTiter-Glo, 72 h); type: cell-based; details: Homo sapiens, A-431, 72 h, A431, 72 h proliferation; read-out: EGFR WT A431 GI50;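 also: proliferation from a luminescent ATP viability signal, expressed as 100 × (treated minus time-zero plate) over (DMSO control minus time-zero plate), cells grown with 10% FBS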
# [5] = In vitro human hepatocytes clearance assay; details: both, human, cryopreserved human hepatocytes (suspension), human hepatocytes Clint (µL/min/10^6cells), mixed gender human hepatocytes, incubation up to 100 min
# Protocol: The protocol for rat/human hepatocytes metabolic stability assay is employed to determine the clearance of the compounds of the present disclosure in vitro.
# Rat hepatocytes in male gender and human hepatocytes in mixed gender were obtained from commercial vendors (e.g., BioreclamationIVT) and stored at -150° C. prior to use. 10 mM stock solutions of tested compounds were prepared in DMSO. Thawing medium and supplement incubation medium (serum-free) were placed in a 37° C. water bath for at least 15 minutes prior to use. Stock solutions were diluted to 100 µM by combining 198 µL acetonitrile and 2 µL of 10 mM stock solution.
# Vials of cryopreserved hepatocytes were removed from storage, ensured that vials remain at cryogenic temperatures. The vials were thawed in a 37° C. water bath with gently shaking. Vials were kept in water bath until all ice crystals had dissolved and were no longer visible. Vials were sprayed with 70% ethanol before being transferred to a biosafety cabinet. And then the contents were poured into the 50 mL thawing medium conical tube. Vials were centrifuged at 100 g for 10 minutes at room temperature.
# Cell viability and density were counted using a Trypan Blue exclusion, and then cells were diluted with serum-free incubation medium to a working cell density of 1 × 10^6 viable cells/ml. […] The inactivated hepatocytes were used to prepare negative samples, which were used to exclude the misleading factor that resulted from instability of chemical itself.
# Aliquots of 247.5 µL hepatocytes were dispensed into each well of a 96-well non-coated plate. The plate was placed in the incubator on an orbital shaker for approximately 10 minutes. Aliquots of 2.5 µL of the 100 µM test compounds were added into respective wells of the non-coated 96-well plate to start the reaction. This assay was performed in duplicate. The plate was incubated in the incubator on an orbital shaker for the designed time points. […] Samples were centrifuges for 20 minutes at 4000 g and aliquots of 100 µL of the supernatants were used for LC-MS/MS analysis for measurement of test compounds
# In vitro hepatocyte clearance was estimated based on determination of elimination half-life (T½) of compounds disappearance from their initial concentrations. Peak area ratios of each compound (test or control) to IS was calculated. Ln (%Control) versus Incubation Time (min) curve was plotted, and the slope of a linear fitting line was calculated.
# [6] = molecular target: BTK (Homo sapiens, UniProt Q06187); experiment: BTK target site occupancy ELISA (PBMC); type: cell-based; details: BTK receptor occupancy
# Protocol: An enzyme-linked immunosorbent assay (ELISA) method for the detection of free uninhibited Btk in mouse and human lysates. Human or mouse whole blood were incubated with compound for 2 hour at 37° C. Whole blood were lysed in ice-cold lysis buffer containing 50 mM Tris-HCl, pH 7.5, 150 mM NaCl, 1 mM EDTA,1% Triton X-100. […] Samples were transferred to a streptavidin-coated 96-well ELISA plate and mixed while shaking for 1 hour at room temperature. The α-Btk antibody (1:500; clone number D3H5, Cell signaling Technology, Danvers, MA, USA) was then added to the well and incubated for 1 hour at room temperature. After wash, goat α-rabbit-FW (1:5000 dilution in PBS+ 0.05% Tween-20 + 1% BSA) was added to each well and incubated for 1 h at room temperature. The ELISA was developed with addition of tetramethyl benzidine (TMB) followed by Stop Solution and read at OD 450 nm.
# [7] = tested on: OCI-LY-10 cells; experiment: BTK (wt) cell proliferation, OCI-LY-10 (CellTiter-Glo, 72 h); type: cell-based; details: Homo sapiens, OCI-Ly10, 72 h, OCI-LY-10 cells, 72 h, CellTiter-Glo; read-out: BTK WT OCI-LY-10 GI50;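 also: viable cells quantified via cellular ATP luminescence, proliferation given as percent of DMSO control after subtracting a duplicate plate read at time of dosing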
# [8] = tested on: Her2 exon 20 insertion YVMA transduced NIH-3T3 cell line; experiment: Cell proliferation, Her2 YVMAins NIH-3T3 (CellTiter-Glo, 72 h); type: cell-based; details: Mus musculus, NIH3T3, 72 h, Her2 YVMAins cells, 72 h proliferation; read-out: Her2 Exon 20 YVMA insertion GI50;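 also: viable cells quantified by ATP luminescence, growth over a day-zero baseline plate expressed as percent of DMSO control growth, compound dilution series in 10% FBS medium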
# [9] = Rat pharmacokinetic study after oral administration (SOA); type: in vivo; details: male Han Wistar rats
# Protocol: For rat pharmacokinetic studies, six male Han Wistar rats were purchased from Beijing Vital River and orally dosed with the test compound at 10 mg/kg in 0.5% Tween-80 and 0.5% hydroxypropyl methylcellulose (v/w). At, 0.5, 1, 2, 4, 7 and 16 hours post-dose, blood samples (>100 µL/time point) were collected from portal vein and via cardiac puncture into separate K2EDTA […] tubes, and then immediately centrifuged at 1500 g, 5 min at 4° C. to separate plasma. The plasma samples were deproteinized with 4 fold acetonitrile (including internal standard), vortex for 10 min and centrifuges for 10 minutes at 4000 g at 4° C.. The supernatantswere submitted to LC/MS/MS (API 5500, Applied Biosystems, Foster City) analysis. Two sets of standard curves were run at the beginning and end of each batch from plasma sample analysis.
# Compound absorption was measured by portal vein AUC (AUCHPV) and systemic AUC (AUCSYS) observed maximum concentration (Cmax) in rats after oral administration. Dose is the actual dose used in SOA study. Find below in Table 9 data for exemplary tested compounds.
# [10] = tested on: NCI-H1975 EGFR L858R/T790M cells; experiment: Cell proliferation, NCI-H1975 EGFR L858R/T790M (CellTiter-Glo, 72 h); type: cell-based; details: Homo sapiens, NCI-H1975, 72 h, NCI-H1975, 72 h proliferation; read-out: EGFR L858R and T790M mutation GI50;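 also: viable cells quantified by luciferase-based ATP luminescence, proliferation expressed relative to DMSO-treated wells (100%) after subtracting a parallel plate read at the time of dosing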
# [11] = tested on: Ba/F3 EGFR NPH ins cells; experiment: Cell proliferation, Ba/F3 EGFR NPH ins (CellTiter-Glo, 72 h); type: cell-based; details: Ba/F3 EGFR, 72 h, Ba/F3 EGFR NPH ins, 72 h proliferation; read-out: EGFR Exon20 NPH insertion GI50;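 also: IL3-independent cells carrying constitutively phosphorylated EGFR, compound dilution series, viable cells quantified by ATP luminescence, growth relative to DMSO wells after subtracting pre-dosing (day 0) baseline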
# Protocol: Similar to recombinant human EGFR exon 20 H769_V770insASV Ba/F3 cell line, the recombinant human EGFR exon 20 H773_V774insNPH Ba/F3 cell line also expresses constitutively phosphorylated EGFR protein and proliferates in the absence of IL3, which could be used for in vitro PD and anti-proliferation assays.
# WT or mutant cells were seeded in 384 well plates at appropriate concentrations with corresponding growth media supplemented with 10% FBS, for each experiment, identical plates were prepared in duplicates, and the plates were incubated overnight. On the next day, one of each duplicated plates was dosed with tested compounds at a series of concentrations, and another one of the duplicated plate was analysied for G0 value. The dosed plates were incubate for another 72 h at 37° C. with 5% CO2 and the number of viable cells in each well of the G0 plates or the dosed plates were measured by CellTiter-Glo® Luminescent Cell Viability Assay (Promega). This assay is a luminescent method for determining the number viable cells through measurement of cellular ATP concentration by detection of luciferase activity. Detection reagents (15 µl) was dispensed into per well, and the plates were incubate for 30 min at room temperature. Then, the luminescence in each well was measured using the Envision plate reader (PerkinElmer). The percentage of proliferation was calculated based on the formula: %Proliferation= 100 × (G3 value of sample well-Go value)/(G3 value of DMSO control-Go value).
# [12] = tested on: NSCLC with EGFR sensitizing, double or uncommon mutation; experiment: Anti-tumor activity in NSCLC patients with EGFR mutation beyond Exon20ins; type: in vivo, human; details: 50-400 mg once daily oral
# Protocol: Compound 52 was explored at 50 mg, 100 mg, 200 mg, 300 mg and 400 mg once daily with oral administration in 12 non-small cell lung cancer (NSCLC) patients with EGFR sensitizing mutation (L858R or 19del), sensitizing (L858R or 19del) and T790M double mutation (double mutation) or less common non-resistant mutation (uncommon mutation, including Gly719Xaa, Leu861Gln, or Ser768Ile mutation). […] In 2 patients with uncommon mutation, 1 SD and 1 PD was observed after Compound 52 treatment.
# [13] = In vitro rat hepatocytes clearance assay; details: male, rat, cryopreserved rat hepatocytes (suspension), rat hepatocytes Clint (µL/min/10^6cells), 1 µM-range incubation up to 100 min
# [14] = 50 mg (N = 3), post platinum-based chemotherapy
# [15] = 100 mg (N = 2), post platinum-based chemotherapy
# [16] = 200 mg (N = 21), post platinum-based chemotherapy
# [17] = 300 mg (N = 84), post platinum-based chemotherapy
# [18] = 400 mg (N = 9), post platinum-based chemotherapy
# [19] = Total (N = 119), post platinum-based chemotherapy
# [20] = 2 patients with uncommon mutation
# [21] = 4 NSCLC patients with EGFR sensitizing mutation
# [22] = 5 NSCLC patients with EGFR double mutation
smiles,measurement,setting,value
"C=CC(=O)Nc1cc(Nc2nccc(Nc3cc(Cl)c(F)cc3C(C)(C)O)n2)c(OC)cc1N1CC[C@@H](N(C)C)C1 [Compound 52, (R)-N-(5-(4-(5-chloro-4-fluoro-2-(2-hydroxypropan-2-yl)phenylamino)pyrimidin-2-ylamino)-2-(3-(dimethylamino)pyrrolidin-1-yl)-4-methoxyphenyl)a crylamide]","Best Objective Response Rate, PD (progressive disease)",[1]; [14],1 (33.3) n(%)
same,"Best Objective Response Rate, PR",[1]; [14],0 (0.0) n(%)
same,"Best Objective Response Rate, PR, confirmed",[1]; [14],0 (0.0) n(%)
same,"Best Objective Response Rate, PR, pending confirmation",[1]; [14],0 (0.0) n(%)
same,"Best Objective Response Rate, SD (stable disease)",[1]; [14],2 (66.7) n(%)
same,"Best Objective Response Rate, PD (progressive disease)",[1]; [15],0 (0.0) n(%)
same,"Best Objective Response Rate, PR",[1]; [15],1 (50.0) n(%)
same,"Best Objective Response Rate, PR, confirmed",[1]; [15],1 (50.0) n(%)
same,"Best Objective Response Rate, PR, pending confirmation",[1]; [15],0 (0.0) n(%)
same,"Best Objective Response Rate, SD (stable disease)",[1]; [15],1 (50.0) n(%)
same,"Best Objective Response Rate, PD (progressive disease)",[1]; [16],3 (14.3) n(%)
same,"Best Objective Response Rate, PR",[1]; [16],10 (47.6) n(%)
same,"Best Objective Response Rate, PR, confirmed",[1]; [16],7 (33.3) n(%)
same,"Best Objective Response Rate, PR, pending confirmation",[1]; [16],2 (9.5)* n(%)
same,"Best Objective Response Rate, SD (stable disease)",[1]; [16],9 (42.9) n(%)
same,"Best Objective Response Rate, PD (progressive disease)",[1]; [17],9 (10.7) n(%)
same,"Best Objective Response Rate, PR, confirmed",[1]; [17],32 (38.1) n(%)
same,"Best Objective Response Rate, PR, pending confirmation",[1]; [17],8 (9.5)* n(%)
same,"Best Objective Response Rate, SD (stable disease)",[1]; [17],35 (41.7) n(%)
same,best Overall Response Rate (ORR),"[1]; 300 mg once daily, 44/84 patients, post platinum-based chemotherapy",52.4%
same,"Best Objective Response Rate, PD (progressive disease)",[1]; [18],2 (22.2) n(%)
same,"Best Objective Response Rate, PR",[1]; [18],2 (22.2) n(%)
same,"Best Objective Response Rate, PR, confirmed",[1]; [18],2 (22.2) n(%)
same,"Best Objective Response Rate, PR, pending confirmation",[1]; [18],0 (0.0) n(%)
same,"Best Objective Response Rate, SD (stable disease)",[1]; [18],5 (55.6) n(%)
same,"Best Objective Response Rate, PD (progressive disease)",[1]; [19],15 (12.6) n(%)
same,"Best Objective Response Rate, PR",[1]; [19],57 (47.9) n(%)
same,"Best Objective Response Rate, PR, confirmed",[1]; [19],42 (35.3) n(%)
same,"Best Objective Response Rate, PR, pending confirmation",[1]; [19],10 (8.4)* n(%)
same,"Best Objective Response Rate, SD (stable disease)",[1]; [19],52 (43.7) n(%)
same,ORR for patients with baseline brain metastasis,"[1]; across studies, 11/25 patients",44%
same,first response observed after treatment,"[1]; single patient, stage IV NSCLC with CNS metastasis, 300 mg once daily",6 weeks
same,IC50,[2],2.9 nM
same,IC50,[3],7.5 nM
same,GI50,[4],47.1 nM
same,hepatocyte CLint at 1 µM,[5],3.29 µL/min/1e6 cells
same,IC50,[6],2.9 nM
same,GI50,[7],3.2 nM
same,GI50,[8],101 nM
same,SOA DN AUCSYS (ng·h/mL)/(mg/kg),[9]; dose-normalised systemic AUC,103 (ng·h/mL)/(mg/kg)
same,Cmax,"[9]; rat, plasma, nominal 10 mg/kg (actual dose in c1)",99 ng/mL
same,GI50,[10],3.3 nM
same,GI50,[11],60.4 nM
same,patients with PD,[12]; [20],1
same,patients with SD,[12]; [20],1
same,patients with PD,[12]; [21],1
same,patients with SD,[12]; [21],2
same,patients with best response of PR,[12]; [21],1
same,patients with best response of partial response (PR),[12]; [22],2
same,patients with progressive disease (PD),[12]; [22],2
same,hepatocyte CLint at 1 µM,[13],13.3 µL/min/1e6 cells
